The values below come from patent US11446287B2, “Compounds and methods for EP300 or CBP modulation and indications therefor” (Opna Immuno-Oncology SA, priority 2019, dated 2022).

A word on the IC50: it is the point on the concentration scale where inhibition reaches its midpoint.

This assay addresses T1, Recombinant human CBP containing the bromodomain (CBP-BD (1043-1159)) (Homo sapiens, UniProt Q92793).
T1 construct: Recombinant human CBP bromodomain (CBP-BD (1043-1159)); made in house; host or cells: E. coli BL21-CodonPlus (DE3), modified pET vector
As to the kind of experiment: CBP Alphascreen binding assay. As to conditions: read-out: CREBBP (CBP) IC50. An outline of the steps: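 Buffer: 50 mM HEPES pH 7.5, 50 mM NaCl, 0.01% BSA, 0.01% Triton X-100, 2 mM DTT. The signal was normalised to plate controls and fitted with a four-parameter curve to give IC50.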
For orientation: Alpha assays give light when donor and acceptor beads are brought close together.

Molecules are shown by their SMILES.

T1 sequence (Q92793 1081-1197): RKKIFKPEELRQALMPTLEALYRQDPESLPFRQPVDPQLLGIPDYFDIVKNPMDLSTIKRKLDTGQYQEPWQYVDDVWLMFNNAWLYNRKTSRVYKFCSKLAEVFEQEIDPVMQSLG

`Cc1noc(C)c1-c1cnc2c(c1)c(-c1cnn(C(C)(C)C(=O)O)c1)cn2C(c1ccccn1)C1CCCC1` (centres unmarked) [P-0035, 2-(4-(1-(cyclopentyl(pyridin-2-yl)methyl)-5-(3,5-dimethylisoxazol-4-yl)-1H-pyrrolo[2,3-b]pyridin-3-yl)-1H-pyrazol-1-yl)-2-methylpropanoic acid]: the IC50 lay in the range of 0.1 to 1000 nM. The value for `Cc1noc(C)c1-c1cnc2c(c1)c(-c1cnn(CC(=O)O)c1)cn2C(c1ccccn1)C1CCCC1` (centres unmarked) [P-0036, 2-(4-(1-(cyclopentyl(pyridin-2-yl)methyl)-5-(3,5-dimethylisoxazol-4-yl)-1H-pyrrolo[2,3-b]pyridin-3-yl)-1H-pyrazol-1-yl)acetic acid] was 0.1 to 1000 nM; that for `Cc1noc(C)c1-c1cnc2c(c1)c(-c1cnn(CC(C)(C)O)c1)cn2C(c1ccccn1)C1CCCC1` (centres unmarked) [P-0037, 1-(4-(1-(cyclopentyl(pyridin-2-yl)methyl)-5-(3,5-dimethylisoxazol-4-yl)-1H-pyrrolo[2,3-b]pyridin-3-yl)-1H-pyrazol-1-yl)-2-methylpropan-2-ol] was 1000 to 8000 nM.

With `Cc1noc(C)c1-c1cnc2c(c1)c(-c1ccc(C(=O)O)c(Cl)c1)cn2C(c1ccccn1)C1CCCC1` (centres unmarked) [P-0038, 2-chloro-4-(1-(cyclopentyl(pyridin-2-yl)methyl)-5-(3,5-dimethylisoxazol-4-yl)-1H-pyrrolo[2,3-b]pyridin-3-yl)benzoic acid], the IC50 fell in the range of 0.1 to 1000 nM. In the case of `COC(=O)c1cc(-c2cn(C(c3ccccn3)C3CCCC3)c3ncc(-c4c(C)noc4C)cc23)ccn1` (centres unmarked) [P-0040, methyl 4-(1-(cyclopentyl(pyridin-2-yl)methyl)-5-(3,5-dimethylisoxazol-4-yl)-1H-pyrrolo[2,3-b]pyridin-3-yl)picolinate] it was 0.1 to 1000 nM; in that of `Cc1noc(C)c1-c1cnc2c(c1)c(-c1ccnc(C(=O)O)c1)cn2C(C1CC1)C1CC1` [P-0041, 4-(1-(dicyclopropylmethyl)-5-(3,5-dimethylisoxazol-4-yl)-1H-pyrrolo[2,3-b]pyridin-3-yl)picolinic acid], 0.1 to 1000 nM. In the case of `Cc1noc(C)c1-c1cnc2c(c1)c(-c1ccnc(C(=O)O)c1)cn2Cc1ccccc1` [P-0042, 4-(1-benzyl-5-(3,5-dimethylisoxazol-4-yl)-1H-pyrrolo[2,3-b]pyridin-3-yl)picolinic acid] it was 0.1 to 1000 nM. In the case of `Cc1noc(C)c1-c1cnc2c(c1)c(-c1ccnc(C(=O)O)c1)cn2C(c1ccccn1)C1CCC1` (centres unmarked) [P-0043, 4-(1-(cyclobutyl(pyridin-2-yl)methyl)-5-(3,5-dimethylisoxazol-4-yl)-1H-pyrrolo[2,3-b]pyridin-3-yl)picolinic acid] it was 0.1 to 1000 nM; in that of `Cc1noc(C)c1-c1cnc2c(c1)c(-c1ccnc(C(=O)O)c1)cn2Cc1ccccn1` [P-0044, 4-(5-(3,5-dimethylisoxazol-4-yl)-1-(pyridin-2-ylmethyl)-1H-pyrrolo[2,3-b]pyridin-3-yl)picolinic acid], 0.1 to 1000 nM. Regarding `Cc1noc(C)c1-c1cnc2c(c1)c(-c1ccnc(C(=O)O)c1)cn2CC1CC1` [P-0045, 4-(1-(cyclopropylmethyl)-5-(3,5-dimethylisoxazol-4-yl)-1H-pyrrolo[2,3-b]pyridin-3-yl)picolinic acid], the IC50 lay in the range of 0.1 to 1000 nM. In the case of `COC(=O)c1cc(-c2cn(C(c3ccccn3)C3CCC3)c3ncc(-c4c(C)noc4C)cc23)ccn1` (centres unmarked) [P-0046, methyl 4-(1-(cyclobutyl(pyridin-2-yl)methyl)-5-(3,5-dimethylisoxazol-4-yl)-1H-pyrrolo[2,3-b]pyridin-3-yl)picolinate] it was 0.1 to 1000 nM; in that of `COc1cc(C(=O)O)ccc1-c1cn([C@@H](C)c2ccccn2)c2ncc(-c3c(C)noc3C)cc12` [P-0047, (S)-4-(5-(3,5-dimethylisoxazol-4-yl)-1-(1-(pyridin-2-yl)ethyl)-1H-pyrrolo[2,3-b]pyridin-3-yl)-3-methoxybenzoic acid], 0.1 to 1000 nM; in that of `Cc1noc(C)c1-c1cnc2c(c1)c(-c1cccc(C(=O)O)c1)cn2Cc1ccccc1` [P-0048, 3-(1-benzyl-5-(3,5-dimethylisoxazol-4-yl)-1H-pyrrolo[2,3-b]pyridin-3-yl)benzoic acid], 0.1 to 1000 nM. The value for `Cc1noc(C)c1-c1cnc2c(c1)c(-c1cccc(C(=O)O)c1)cn2Cc1ccccn1` [P-0049, 3-(5-(3,5-dimethylisoxazol-4-yl)-1-(pyridin-2-ylmethyl)-1H-pyrrolo[2,3-b]pyridin-3-yl)benzoic acid] was 0.1 to 1000 nM; that for `Cc1noc(C)c1-c1cnc2c(c1)c(-c1cccc(C(=O)O)c1)cn2CC1CC1` [P-0050, 3-(1-(cyclopropylmethyl)-5-(3,5-dimethylisoxazol-4-yl)-1H-pyrrolo[2,3-b]pyridin-3-yl)benzoic acid] was 0.1 to 1000 nM.

Turning to `Cc1noc(C)c1-c1cnc2c(c1)c(C#CC(C)(C)C(=O)O)cn2Cc1ccccc1` [P-0051, 4-(1-benzyl-5-(3,5-dimethylisoxazol-4-yl)-1H-pyrrolo[2,3-b]pyridin-3-yl)-2,2-dimethylbut-3-ynoic acid], the IC50 was in the range of 0.1 to 1000 nM. Take `COC(=O)c1cc(-n2cc(Cc3ccccc3)c3ncc(-c4c(C)noc4C)cc32)ccn1` [P-0052, methyl 4-(3-benzyl-6-(3,5-dimethylisoxazol-4-yl)-1H-pyrrolo[3,2-b]pyridin-1-yl)picolinate]: the IC50 was in the range of 0.1 to 1000 nM.

Take `Cc1noc(C)c1-c1cnc2c(Cc3ccccc3)cn(-c3ccnc(C(=O)O)c3)c2c1` [P-0053, 4-(3-benzyl-6-(3,5-dimethylisoxazol-4-yl)-1H-pyrrolo[3,2-b]pyridin-1-yl)picolinic acid]: the IC50 was 0.1 to 1000 nM. The value for `Cc1noc(C)c1-c1cnc2c(C(=O)c3ccccc3)cn(-c3ccnc(C(=O)O)c3)c2c1` [P-0054, 4-(3-benzoyl-6-(3,5-dimethylisoxazol-4-yl)-1H-pyrrolo[3,2-b]pyridin-1-yl)picolinic acid] was 0.1 to 1000 nM. The value for `Cc1noc(C)c1-c1cnc2c(c1)c(-c1ccc(C(=O)O)cc1OC(F)(F)F)cn2-c1ccc(C2CC2)nc1` [P-0388, 4-(1-(6-cyclopropylpyridin-3-yl)-5-(3,5-dimethylisoxazol-4-yl)-1H-pyrrolo[2,3-b]pyridin-3-yl)-3-(trifluoromethoxy)benzoic acid] was 0.1 to 1000 nM.

In the case of `Cc1noc(C)c1-c1cnc2c(c1)c(-c1ccc(C(=O)O)cc1OC(F)(F)F)cn2C1CCC(C#N)C1` (centres unmarked) [P-0389, 4-(1-(3-cyanocyclopentyl)-5-(3,5-dimethylisoxazol-4-yl)-1H-pyrrolo[2,3-b]pyridin-3-yl)-3-(trifluoromethoxy)benzoic acid], the IC50 was in the range of 0.1 to 1000 nM. In the case of `Cc1noc(C)c1-c1cnc2c(c1)c(-c1c(Cl)cc(C(=O)O)cc1OCC(F)F)cn2-c1cnc(C2CC2)nc1` [P-0390, 3-chloro-4-(1-(2-cyclopropylpyrimidin-5-yl)-5-(3,5-dimethylisoxazol-4-yl)-1H-pyrrolo[2,3-b]pyridin-3-yl)-5-(2,2-difluoroethoxy)benzoic acid] it was 0.1 to 1000 nM; in that of `Cc1noc(C)c1-c1cnc2c(c1)c(-c1c(Cl)cc(C(=O)O)cc1OC1CCC1)cn2-c1cnc(C2CC2)nc1` [P-0391, 3-chloro-5-cyclobutoxy-4-(1-(2-cyclopropylpyrimidin-5-yl)-5-(3,5-dimethylisoxazol-4-yl)-1H-pyrrolo[2,3-b]pyridin-3-yl)benzoic acid], 0.1 to 1000 nM.
